Legend:
Type in all cases: in vivo
[1] = system: male Swiss mice; assay: Hot Plate Test, analgesic activity (% AA) after i.p. administration
Description: The activity of several compounds with action in central nervous system as opioids, which the main drug is morphine, and the alpha-2 adrenoceptor agonist as clonidine have been identified by this method.
The analgesic activity of LPSF-PT-31, GIRSUPAN was investigated in male Swiss mice weighting 18-24 grams using the Hot Plate Test method (Brain Res. 1983, 245-252). The animals were positioned on a hot plate stabilized at 52° C. using the equipment Analgesic Meter-Letica LE 7406. When the pain threshold was achieved the animals raised and licked the front paw to cool down the temperature. The time between positioning the animals on the plate and lick the paw was the latency of the pain reaction. The maximal time (cut-off) allowed to the animals staying on the hot plate was three times the latency time measured on the control. The cut-off was very important to avoid skin damage of the paw.
The analgesic effect of the tested compounds was converted to a unit denominated analgesic activity (% AA) (Brain Res. 1983, 245-252) calculated by equation % AA=((post-drug latency)−(control latency))/((cut off)−(control latency))×100. The experimental protocol used to test the analgesic effect of the compound LPSF-PT-31, GIRSUPAN, consisted to measure the AA in the control condition (before drug administration) and after (i.p.) intraperitoneal administration of increasing dose (1, 5, 10 and 15 mg·kg^−1).
In another experimental group, dimethyl sulfoxide used as vehicle for diluting LPSF-PT-31, GIRSUPAN, was i.p. administered at same volume used for the tested drug. The AA was measured until complete recovery to the control condition.

[2] = system: male Swiss mice; assay: Isobolographic analysis of the combination with morphine (analgesic effect, DE50); conditions: i.p., combination of fractions of DE50 of each drug, FIG. 3
Description: First, we determined the dose of morphine that cause 50% of maximal analgesic effect (DE50) after administration (i.p.) in incremental doses. […] Fraction of association of DE50 of each drug was administrated and the DE50 of combination was determined. A isobolographic analysis (FIG. 3) using the DE50 of each drug and of the combination was performed using a computer program (Life Sci 1989 45: 947-961) to determine the type of interaction.

[3] = system: Wistar male rats; assay: Hot Plate analgesic effect after intrathecal administration
Description: Stimulation of alpha-2 adrenoceptors distributed at spinal cord cause analgesia. […] Thus, the analgesic activity of LPSF-PT-31, GIRSUPAN was investigated after intrathecal administration. Wistar male rats weighting 240-280 grams were positioned in abdominal under light general anesthesia with sevoflurane. Puncture between L4-L5 was performed with low diameter needle (29 G) and LPSF-PT-31, GIRSUPAN was injected at dose of 20, 40, 80 or 160 μg diluted in constant volume of 50 μl. Sevoflurane was the elected anesthetic due to low blood solubility causing a fast induction and recovery of anesthesia.
Thus, the animals were completely recovered few minutes after punction and injection LPSF-PT-31, GIRSUPAN and AA activity started to measure from 10 minutes. […] The maximal analgesic effect measured by Hot Plate was ca. 40% sustained by 180 minutes. This intensity of analgesic effect is observed with alpha-2 adrenoceptor agonist as clonidine.

[4] = system: male Swiss mice; assay: Sedative activity by measuring motor activity (Motor Activity Monitor)
Description: The sedative activity of 3-(2-chloro-6-fluoro-benzyl)-imidazolidine-2,4-dione LPSF-PT-31, GIRSUPAN was investigated in male Swiss mice weighting 18-24 grams by measuring the motor activity (Motor Activity Monitor, Letica LE 8811). In this equipment the animals are positioned in an open square field and a set of invisible beans cross the field. The interruption of the beans was used to quantify the motor activity. After a period of adaptation the motor activity of the animals was measured during 20 min.
Decrease of motor activity represents reduction of brain activity and this observation is useful to investigate the effect of drug with sedative, hipnotic, anxyolitic and general anesthetic properties (Bioorg. Med. Chem. 2006, 14:632-640). Thus, measurement of motor activity is not a method to identify a specific group of pharmacological class.

[5] = system: Wistar male rats; assay: Activity on cardiovascular system: blood pressure and EKG recording in awake animals; conditions: 10 mg/kg single dose through external jugular vein
Description: Hypotension and reduction of heart rate are the major concern of alpha-2 adrenoceptor agonist as clonidine. These effects are justified by decreasing the central nervous system sympathetic outflow due to activation of alpha-2 adrenoceptor. With the aim to investigate if LPSF-PT-31, GIRSUPAN could cross the brain barrier and reduces the hemodynamic response, Wistar male rats weighing 230-280 grams were prepared for blood pressure and electrocardiogram (EKG) recording. The heart rate was estimated by analysis of EKG. LPSF-PT-31, GIRSUPAN (10 mg/kg) was injected trough external jugular vein in a single dose in awaked animals. The blood pressure and the heart rate were not changed showing that LPSF-PT-31, GIRSUPAN is a stable compound for the cardiovascular system differently that occurs with clonidine.

`O=C1CNC(=O)N1Cc1c(F)cccc1Cl` [LPSF-PT-31, 3-(2-chloro-6-fluoro-benzyl)-imidazolidine-2,4-dione] was tested, and the “maximal effect (% AA)” value ([1]; 15 mg·kg^−1 i.p.) was “about 80 % AA”, the “duration of plateau of analgesic effect” value ([1]; i.p.) was 40 to 50 min and the “time of peak of analgesic effect” value ([1]; i.p.) was “approximately 20 min”. For the same compound, the “time to complete recovery from the analgesic effect” value ([1]; i.p.) was 100 to 120 min, the “effect on % AA (analgesic activity)” value ([1]; i.p. 1, 5, 10 and 15 mg·kg^−1, hot plate 52° C., FIG. 1) was “increased the % AA in a dose-dependent manner” and the “reversal of analgesic effect by naloxone (antagonist of opioid receptor)” value ([1]; naloxone 1 mg·kg^−1 i.p.) was “partially reversed”. For the same compound, the “reversal of analgesic effect by flumazenil (antagonist of benzodiazepine receptor)” value ([1]; previous treatment with flumazenil 0.3 mg·kg^−1) was “not reversed”, the “reversal of analgesic effect by yohimbine (antagonist of alpha-2 adrenoceptor)” value ([1]; yohimbine 5 mg·kg^−1 i.p., compound 10 mg·kg^−1, FIG. 2) was “completely reversed” and the “type of interaction with morphine (isobolographic analysis of DE50)” value [2] was “strong synergic interaction”. The “duration of maximal analgesic effect” value ([3]; intrathecal) was 180 min, the “maximal analgesic effect measured by Hot Plate” value ([3]; intrathecal) was “ca. 40%” and the “effect on pain reaction after intrathecal administration” value ([3]; intrathecal 20, 40, 80 or 160 μg in 50 μl, FIG. 4) was “reduces the pain reaction after intrathecal administration in a dose-dependent manner”. For the same compound, the “reduction of motor activity” value ([4]; 10 mg·kg^−1, motor activity measured during 20 min, FIG. 5) was “ca. 80%”, the “intensity of motor activity reduction versus positive control” value ([4]; 10 mg·kg^−1, positive control midazolam, FIG. 5) was “comparable to midazolam” and the “reversal of decrease of motor activity by yohimbine” value ([4]; yohimbine) was “completely reversed”. For the same compound, the blood pressure [5] was “not changed” and the “heart rate (estimated by analysis of EKG)” value [5] was “not changed”.

— patent US8217068B2, “Compound with anesthetics activity, methods for its production and pharmaceutical compositions comprising the same” (Universidade Federal de Pernambuco—UFPE, priority 2007, dated 2012)
